Laboratory results: patent US9956319B2, “Compositions useful as antibiofilm or antimicrobial agents and methods using same” (BAYLOR COLLEGE OF MEDICINE, priority 2012, dated 2018)

What was measured:
Pseudomonas aeruginosa = test: Zones of inhibition of impregnated catheter segments, modified Kirby-Bauer method; assay type: cell-based
Experimental: (§1) To evaluate the antimicrobial activity of central venous catheters treated with α-lipoic acid or its combination with gentamicin, segments of 7 French triple lumen polyurethane central venous catheters were impregnated with α-lipoic acid, gentamicin, or the combination of lipoic acid and gentamicin using the same patented method described in Example 1 with 50 mg/ml of each agent (for the final solution volume). After the impregnation process and drying, zones of inhibition were performed on one-centimeter segments according to a modified Kirby-Bauer method against MSSE, MRSE, MRSA, K. pneumoniae, E. coli, P. mirabilis, Pseudomonas aeruginosa, and Candida albicans. Each segment was half embedded in the center of a Muller-Hinton agar plate that had been previously inoculated with an individual organism. Prior to placing the catheter segments in agar, each organism was grown for 18 hours in TSB to a concentration of 0.5 McFarland (10^8 cfu/ml). A cotton swab was placed in the suspension and streaked across the surface of the Muller-Hinton agar plate to cover the entire plate. All plates were placed in a 37° C. incubator for 24 hours. Zones were measured in mm after the incubation period (Table 2).
(§2) To evaluate the antimicrobial activity of central venous catheters treated with α-lipoic acid or its combination with doxycycline, segments of 7 French triple lumen polyurethane central venous catheters were impregnated with doxycycline or the combinations of α-lipoic acid and doxycycline using the same patented method described in Example 1 (U.S. Pat. No. 6,589,591) with 50 mg/ml of each agent (for the final solution volume). After the impregnation process and drying, zones of inhibition were performed on one-centimeter segments according to a modified Kirby-Bauer method against MSSE, MRSE, MRSA, K. pneumoniae, E. coli, P. aeruginosa, P. mirabilis, and C. albicans as described in Example 2. Zones of inhibition were measured in mm after the incubation period (Table 3).
(§3) To evaluate the antimicrobial activity of central venous catheters treated with lipoamide or its combination with levofloxacin, segments of 7 French triple lumen polyurethane central venous catheters were impregnated with levofloxacin or the combinations of lipoamide and levofloxacin using the same patented method described in Example 1 (U.S. Pat. No. 6,589,591) with 100 mg/ml (final solution volume) of each agent. After the impregnation process and drying, zones of inhibition were performed on one-centimeter segments according to a modified Kirby-Bauer method against MSSE, MRSE, MRSA, vancomycin-resistant Enterococcus (VRE), K. pneumoniae, E. coli, P. aeruginosa, P. mirabilis, and C. albicans as described in Example 2. Zones of inhibition were measured in mm after the incubation period (Table 4).
as §3, with “doxycycline,” for “levofloxacin,”, “doxycycline” for “levofloxacin”, “5).” for “4).”
(§4) To evaluate the antimicrobial activity of central venous catheters treated with dihydrolipoic acid, segments of 7 French triple lumen polyurethane central venous catheters were impregnated with dihydrolipoic acid using the same patented method described in Example 1 (U.S. Pat. No. 6,589,591) with 25 mg/ml (final solution volume) of the agent. […]

Candida albicans = test: as above; assay type: cell-based
Experimental: as §1, §2, §3
as §3, with “doxycycline,” for “levofloxacin,”, “doxycycline” for “levofloxacin”, “5).” for “4).”
as §4

Klebsiella pneumoniae II = test: as above; assay type: cell-based
Experimental: as §1, §2, §3
as §3, with “doxycycline,” for “levofloxacin,”, “doxycycline” for “levofloxacin”, “5).” for “4).”
as §4

Klebsiella pneumoniae I = test: as above; assay type: cell-based
Experimental: as §1, §2, §3
as §3, with “doxycycline,” for “levofloxacin,”, “doxycycline” for “levofloxacin”, “5).” for “4).”
as §4

Escherichia coli = test: as above; assay type: cell-based
Experimental: as §1, §2, §3
as §3, with “doxycycline,” for “levofloxacin,”, “doxycycline” for “levofloxacin”, “5).” for “4).”
as §4

Proteus mirabilis = test: as above; assay type: cell-based
Experimental: as §1, §2, §3
as §3, with “doxycycline,” for “levofloxacin,”, “doxycycline” for “levofloxacin”, “5).” for “4).”
as §4

[1] = tested on: vancomycin-resistant Enterococcus (VRE); test: as above; assay type: cell-based
Experimental: as §1
(§5) To evaluate the antimicrobial activity of central venous catheters treated with lipoamide or its combination with levofloxacin, segments of 7 French triple lumen polyurethane central venous catheters were impregnated with levofloxacin or the combinations of lipoamide and levofloxacin using the same patented method described in Example 1 (U.S. Pat. No. 6,589,591) with 100 mg/ml (final solution volume) of each agent. […] Zones of inhibition were measured in mm after the incubation period (Table 4).
as §5, with “doxycycline,” for “levofloxacin,”, “doxycycline” for “levofloxacin”, “5).” for “4).”
To evaluate the antimicrobial activity of central venous catheters treated with dihydrolipoic acid, segments of 7 French triple lumen polyurethane central venous catheters were impregnated with dihydrolipoic acid using the same patented method described in Example 1 (U.S. Pat. No. 6,589,591) with 25 mg/ml (final solution volume) of the agent. […] Zones of inhibition were measured in mm after the incubation period (Table 6).

MRSA = test: as above; assay type: cell-based, Staphylococcus aureus
Experimental: as §1, §2, §3
as §3, with “doxycycline,” for “levofloxacin,”, “doxycycline” for “levofloxacin”, “5).” for “4).”
as §4

common pathogens = test: Antimicrobial activity of impregnated catheters, overall conclusion from Tables 1-8; assay type: cell-based; details: conclusion in words from Tables 1-8
MSSE = test: Zones of inhibition of impregnated catheter segments, modified Kirby-Bauer method; assay type: cell-based, Staphylococcus epidermidis
Experimental: as §1, §2, §3
as §3, with “doxycycline,” for “levofloxacin,”, “doxycycline” for “levofloxacin”, “5).” for “4).”
as §4

MRSE = test: as above; assay type: cell-based, Staphylococcus epidermidis
Experimental: as §1, §2, §3
as §3, with “doxycycline,” for “levofloxacin,”, “doxycycline” for “levofloxacin”, “5).” for “4).”
as §4

[2] = catheter impregnated with 25 mg/ml of the agent
[3] = catheter impregnated with 100 mg/ml of each agent
[4] = Staphylococcus epidermidis, catheter impregnated with 100 mg/ml of each agent
[5] = catheter impregnated with 50 mg/ml of each agent, 37° C., 24 hours
[6] = Staphylococcus epidermidis, catheter impregnated with 50 mg/ml of each agent, 37° C., 24 hours

O=C(O)CCCCC(S)CCS (centres unmarked) [Dihydrolipoic acid, 6,8-dimercaptooctanoic acid] was tested, and the Zones of inhibition (Pseudomonas aeruginosa; Pseudomonas aeroginosa, catheter impregnated with 25 mg/ml of the agent) was 11 mm, the Zones of inhibition (Candida albicans; [2]) was 13 mm and the Zones of inhibition (Klebsiella pneumoniae II; Klebsiella pneumoniae II, catheter impregnated with 25 mg/ml of the agent) was 0 mm. The Zones of inhibition (Klebsiella pneumoniae I; [2]) was 0 mm, the Zones of inhibition (Escherichia coli; [2]) was 0 mm and the Zones of inhibition (Proteus mirabilis; [2]) was 0 mm. For the same compound, the Zones of inhibition [1, 2] was 14 mm, the Zones of inhibition (MRSA; [2]) was 24 mm and the intrinsic antimicrobial activity (common pathogens) was “unexpected intrinsic antimicrobial activities”. It also gave a Zones of inhibition (MSSE; [2]) of 25 mm and a Zones of inhibition (MRSE; [2]) of 21 mm.
NC(=O)CCCCC1CCSS1 (centres unmarked) [Lipoamide, lipoamide] was tested, and the zone of inhibition at 100000 µg/mL (Pseudomonas aeruginosa; Pseudomonas aeruginosa, Pseudomonas aeroginosa, catheter impregnated with 100 mg/ml of each agent) was 18 mm, the zone of inhibition at 100000 µg/mL (Candida albicans; [3]) was 6 mm and the zone of inhibition at 100000 µg/mL (Klebsiella pneumoniae II; Klebsiella pneumoniae II, catheter impregnated with 100 mg/ml of each agent) was 13 mm. For the same compound, the zone of inhibition at 100000 µg/mL (Klebsiella pneumoniae I; [3]) was 12 mm, the zone of inhibition at 100000 µg/mL (Escherichia coli; [3]) was 10 mm and the zone of inhibition at 100000 µg/mL (Proteus mirabilis; [3]) was 13 mm. For the same compound, the zone of inhibition at 100000 µg/mL ([1]; Enterococcus, catheter impregnated with 100 mg/ml of each agent) was 4 mm, the zone of inhibition at 100000 µg/mL (MRSA; Staphylococcus aureus, catheter impregnated with 100 mg/ml of each agent) was 10 mm and the intrinsic antimicrobial activity (common pathogens) was “unexpected intrinsic antimicrobial activities”. It also gave a zone of inhibition at 100000 µg/mL (MSSE; [4]) of 24 mm and a zone of inhibition at 100000 µg/mL (MRSE; [4]) of 16 mm.
O=C(O)CCCCC1CCSS1 (centres unmarked) [Lipoic acid, 1,2-dithiolane-3-pentanoic acid] gave a zone of inhibition at 50000 µg/mL (Pseudomonas aeruginosa; Pseudomonas aeruginosa, catheter impregnated with 50 mg/ml of each agent, 37° C., 24 hours) of 5 mm, a zone of inhibition at 50000 µg/mL (Candida albicans; [5]) of 10 mm and a zone of inhibition at 50000 µg/mL (Klebsiella pneumoniae II; Klebsiella pneumoniae, Klebsielle pneuminiae II, catheter impregnated with 50 mg/ml of each agent, 37° C., 24 hours) of 18 mm. For the same compound, the zone of inhibition at 50000 µg/mL (Klebsiella pneumoniae I; [5]) was 20 mm, the zone of inhibition at 50000 µg/mL (Escherichia coli; [5]) was 12 mm and the zone of inhibition at 50000 µg/mL (Proteus mirabilis; [5]) was 12 mm. For the same compound, the zone of inhibition at 50000 µg/mL (MRSA; Staphylococcus aureus, catheter impregnated with 50 mg/ml of each agent, 37° C., 24 hours) was 13 mm, the intrinsic antimicrobial activity (common pathogens) was “unexpected intrinsic antimicrobial activities” and the zone of inhibition at 50000 µg/mL (MSSE; [6]) was 32 mm. It also gave a zone of inhibition at 50000 µg/mL (MRSE; [6]) of 22 mm.
